Measured values taken from patent US11180474B2 (BRISTOL-MYERS SQUIBB COMPANY, priority 2016, dated 2021).

What was measured:
human TLR7 = biological target: T1, human TLR7 (Homo sapiens, UniProt Q9NYK1); assay: TLR7 inhibition reporter assay (HEK-Blue cells, SEAP reporter, gardiquimod stimulation); type: cell-based; conditions: HEK-Blue cells overexpressing human TLR7, gardiquimod 7.5 μM
T1 construct: host or cells: HEK-Blue cells
T1 sequence (Q9NYK1 27-1049): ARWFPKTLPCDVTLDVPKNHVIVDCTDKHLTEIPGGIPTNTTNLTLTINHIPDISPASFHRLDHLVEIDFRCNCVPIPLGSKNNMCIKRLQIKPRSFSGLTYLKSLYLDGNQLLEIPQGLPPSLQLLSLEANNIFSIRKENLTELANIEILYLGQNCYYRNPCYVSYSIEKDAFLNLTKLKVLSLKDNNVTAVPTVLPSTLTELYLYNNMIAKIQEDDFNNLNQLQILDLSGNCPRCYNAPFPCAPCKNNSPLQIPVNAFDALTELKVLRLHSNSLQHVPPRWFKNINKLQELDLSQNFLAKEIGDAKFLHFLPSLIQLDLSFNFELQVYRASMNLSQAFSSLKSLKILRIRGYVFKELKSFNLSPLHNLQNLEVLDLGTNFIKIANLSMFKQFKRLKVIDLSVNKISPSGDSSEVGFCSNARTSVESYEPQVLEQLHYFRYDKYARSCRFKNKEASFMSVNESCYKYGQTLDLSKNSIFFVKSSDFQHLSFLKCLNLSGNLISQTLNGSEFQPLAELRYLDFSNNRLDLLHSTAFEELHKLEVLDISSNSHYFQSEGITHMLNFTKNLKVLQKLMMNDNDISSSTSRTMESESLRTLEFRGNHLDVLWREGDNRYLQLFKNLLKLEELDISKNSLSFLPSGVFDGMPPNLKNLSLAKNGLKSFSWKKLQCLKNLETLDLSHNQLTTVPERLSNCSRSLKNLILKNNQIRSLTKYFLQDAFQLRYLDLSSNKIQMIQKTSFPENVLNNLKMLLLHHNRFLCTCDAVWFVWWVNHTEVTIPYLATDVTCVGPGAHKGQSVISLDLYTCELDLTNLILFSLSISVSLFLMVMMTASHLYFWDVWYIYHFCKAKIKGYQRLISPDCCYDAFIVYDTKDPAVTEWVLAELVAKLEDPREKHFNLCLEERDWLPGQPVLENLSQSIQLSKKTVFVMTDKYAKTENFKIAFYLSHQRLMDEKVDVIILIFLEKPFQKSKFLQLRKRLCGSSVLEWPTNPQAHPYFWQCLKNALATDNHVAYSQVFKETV
Method in brief: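 22 h, 37° C, 5% CO2 incubation; compounds 0.05 nM-50 μM final; TLR7 cells 15000/well, TLR8 20,000/well. Readout: SEAP via HEK-Blue Detection medium. % inhibition = signal reduction versus agonist + DMSO wells, referenced to known inhibitor.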

human TLR9 = biological target: T2, human TLR9 (Homo sapiens, UniProt Q9NR96); assay: TLR9 inhibition reporter assay (HEK-Blue cells, SEAP reporter, ODN2006 stimulation); type: cell-based; conditions: HEK-Blue cells overexpressing human TLR9, ODN2006 5 nM
T2 construct: host or cells: HEK-Blue cells
T2 sequence (Q9NR96 26-1032): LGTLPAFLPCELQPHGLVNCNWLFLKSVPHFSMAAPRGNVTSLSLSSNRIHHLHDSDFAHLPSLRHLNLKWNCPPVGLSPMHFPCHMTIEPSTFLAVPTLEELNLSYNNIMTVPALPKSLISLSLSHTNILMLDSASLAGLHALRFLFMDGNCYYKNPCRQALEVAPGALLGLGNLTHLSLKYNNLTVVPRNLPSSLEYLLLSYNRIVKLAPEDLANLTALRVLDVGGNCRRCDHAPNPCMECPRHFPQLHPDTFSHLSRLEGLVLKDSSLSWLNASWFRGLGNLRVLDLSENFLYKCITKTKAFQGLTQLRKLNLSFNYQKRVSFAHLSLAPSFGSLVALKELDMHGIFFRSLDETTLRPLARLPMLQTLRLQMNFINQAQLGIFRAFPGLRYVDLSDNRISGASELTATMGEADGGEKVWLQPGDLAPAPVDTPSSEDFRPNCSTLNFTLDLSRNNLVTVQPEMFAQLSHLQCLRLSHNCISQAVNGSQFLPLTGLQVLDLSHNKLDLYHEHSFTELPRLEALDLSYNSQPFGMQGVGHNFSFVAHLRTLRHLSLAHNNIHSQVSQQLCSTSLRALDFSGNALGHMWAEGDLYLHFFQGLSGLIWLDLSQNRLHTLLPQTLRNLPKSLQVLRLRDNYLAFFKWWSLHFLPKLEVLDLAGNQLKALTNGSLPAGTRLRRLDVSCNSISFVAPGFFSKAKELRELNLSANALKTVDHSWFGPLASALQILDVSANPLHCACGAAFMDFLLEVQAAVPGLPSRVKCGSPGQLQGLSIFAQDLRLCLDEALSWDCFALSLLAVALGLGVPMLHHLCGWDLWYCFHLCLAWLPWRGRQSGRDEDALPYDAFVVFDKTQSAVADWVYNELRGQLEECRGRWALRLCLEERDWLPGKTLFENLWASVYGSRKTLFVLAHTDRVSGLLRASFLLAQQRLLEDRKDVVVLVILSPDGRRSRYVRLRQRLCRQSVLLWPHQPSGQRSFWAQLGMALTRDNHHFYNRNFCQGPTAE
Method in brief: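 Compound treatment: 30 min, RT, 0.05 nM–50 μM final. Agonist: TLR7 gardiquimod 7.5 μM; TLR8 R848 15.9 μM; TLR9 ODN2006 5 nM. Incubation 22 h, 37 °C, 5% CO2. Readout SEAP, HEK-Blue Detection.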

Row | IC50 (human TLR7) [nM] | IC50 (human TLR9) [nM] | SMILES
1 | 19 | 267 | COc1ccc(-c2[nH]c3ccc(C4CCN(CC(=O)N5CCC(N6CCCCC6)CC5)CC4)cc3c2CC(F)(F)F)cc1OC [Example 359, 1-([1,4′-bipiperidin]-1′-yl)-2-(4-(2-(3,4-dimethoxyphenyl)-3-(2,2,2-trifluoroethyl)-1H-indol-5-yl)piperidin-1-yl)ethan-1-one]
2 | 16 | 392 | COc1ccc(-c2[nH]c3ccc(C4CCN(CC(=O)NCCC5CCCN5C)CC4)cc3c2CC(F)(F)F)cc1OC (stereo not shown) [Example 360, 2-(4-(2-(3,4-dimethoxyphenyl)-3-(2,2,2-trifluoroethyl)-1H-indol-5-yl)piperidin-1-yl)-N-(2-(1-methylpyrrolidin-2-yl)ethyl) acetamide]
3 | 100 | 2420 | COc1ccc(-c2[nH]c3ccc(C4CCN(CC(=O)N5CCN(C(C)=O)CC5)CC4)cc3c2CC(F)(F)F)cc1OC [Example 361, 1-(4-acetylpiperazin-1-yl)-2-(4-(2-(3,4-dimethoxyphenyl)-3-(2,2,2-trifluoroethyl)-1H-indol-5-yl)piperidin-1-yl)ethan-1-one]
4 | 65 | 1150 | COc1ccc(-c2[nH]c3ccc(C4CCN(CC(=O)N5CCN(C(C)C)CC5)CC4)cc3c2CC(F)(F)F)cc1OC [Example 362, 2-(4-(2-(3,4-dimethoxyphenyl)-3-(2,2,2-trifluoroethyl)-1H-indol-5-yl)piperidin-1-yl)-1-(4-isopropylpiperazin-1-yl)ethan-1-one]
5 | 8 | 268 | COc1ccc(-c2[nH]c3ccc(C4CCN(CC(=O)N5CCC(N6CCN(C)CC6)CC5)CC4)cc3c2CC(F)(F)F)cc1OC [Example 363, 2-(4-(2-(3,4-dimethoxyphenyl)-3-(2,2,2-trifluoroethyl)-1H-indol-5-yl)piperidin-1-yl)-1-(4-(4-methylpiperazin-1-yl)piperidin-1-yl) ethan-1-one]
6 | 23 | 563 | COc1ccc(-c2[nH]c3ccc(C4CCN(CC(=O)N5CCC(N(C)C)CC5)CC4)cc3c2CC(F)(F)F)cc1OC [Example 364, 2-(4-(2-(3,4-dimethoxyphenyl)-3-(2,2,2-trifluoroethyl)-1H-indol-5-yl)piperidin-1-yl)-1-(4-(dimethylamino)piperidin-1-yl)ethan-1-one]
7 | 14 | 190 | COc1ccc(-c2[nH]c3ccc(C4CCN(CC(=O)N(C)CCCN(C)C)CC4)cc3c2CC(F)(F)F)cc1OC [Example 365, 2-(4-(2-(3,4-dimethoxyphenyl)-3-(2,2,2-trifluoroethyl)-1H-indol-5-yl)piperidin-1-yl)-N-(3-(dimethylamino)propyl)-N-methylacetamide]
8 | 4 | 141 | COc1ccc(-c2[nH]c3ccc(C4CCN(CC(=O)N5CCN(c6ccncc6)CC5)CC4)cc3c2CC(F)(F)F)cc1OC [Example 366, 2-(4-(2-(3,4-dimethoxyphenyl)-3-(2,2,2-trifluoroethyl)-1H-indol-5-yl)piperidin-1-yl)-1-(4-(pyridin-4-yl)piperazin-1-yl) ethan-1-one]
9 | 23 | 441 | COc1ccc(-c2[nH]c3ccc(C4CCN(CC(=O)N(C)CCN(C)C)CC4)cc3c2CC(F)(F)F)cc1OC [Example 367, 2-(4-(2-(3,4-dimethoxyphenyl)-3-(2,2,2-trifluoroethyl)-1H-indol-5-yl)piperidin-1-yl)-N-(2-(dimethylamino)ethyl)-N-methylacetamide]
10 | 159 | 1330 | COc1ccc(-c2[nH]c3ccc(C4CCN(CC(=O)N5CCN(c6ncccn6)CC5)CC4)cc3c2CC(F)(F)F)cc1OC [Example 368, 2-(4-(2-(3,4-dimethoxyphenyl)-3-(2,2,2-trifluoroethyl)-1H-indol-5-yl)piperidin-1-yl)-1-(4-(pyrimidin-2-yl)piperazin-1-yl)ethan-1-one]
11 | 101 | 1950 | COc1ccc(-c2[nH]c3ccc(C4CCN(CC(=O)N5CCC(C(N)=O)CC5)CC4)cc3c2CC(F)(F)F)cc1OC [Example 369, 1-(2-(4-(2-(3,4-dimethoxyphenyl)-3-(2,2,2-trifluoroethyl)-1H-indol-5-yl)piperidin-1-yl)acetyl)piperidine-4-carboxamide]
12 | 27 | 399 | COc1ccc(-c2[nH]c3ccc(C4CCN(CC(=O)N(C)C5CCN(C)C5)CC4)cc3c2CC(F)(F)F)cc1OC (stereo not shown) [Example 370, 2-(4-(2-(3,4-dimethoxyphenyl)-3-(2,2,2-trifluoroethyl)-1H-indol-5-yl)piperidin-1-yl)-N-methyl-N-(1-methylpyrrolidin-3-yl)acetamide]
13 | 79 | 2460 | COc1ccc(-c2[nH]c3ccc(C4CCN(CC(=O)N5CCC[C@@H]5CO)CC4)cc3c2CC(F)(F)F)cc1OC [Example 371, (R)-2-(4-(2-(3,4-dimethoxyphenyl)-3-(2,2,2-trifluoroethyl)-1H-indol-5-yl)piperidin-1-yl)-1-(2-(hydroxymethyl)pyrrolidin-1-yl)ethan-1-one]
14 | 13 | 335 | CCN(CCN(C)C)C(=O)CN1CCC(c2ccc3[nH]c(-c4ccc(OC)c(OC)c4)c(CC(F)(F)F)c3c2)CC1 [Example 372, 2-(4-(2-(3,4-dimethoxyphenyl)-3-(2,2,2-trifluoroethyl)-1H-indol-5-yl)piperidin-1-yl)-N-(2-(dimethylamino)ethyl)-N-ethylacetamide]
15 | 16 | 370 | COc1ccc(-c2[nH]c3ccc(C4CCN(CC(=O)N5CC[C@@H](N(C)C)C5)CC4)cc3c2CC(F)(F)F)cc1OC [Example 373, (R)-2-(4-(2-(3,4-dimethoxyphenyl)-3-(2,2,2-trifluoroethyl)-1H-indol-5-yl)piperidin-1-yl)-1-(3-(dimethylamino)pyrrolidin-1-yl)ethan-1-one]
16 | 9 | 252 | COc1ccc(-c2[nH]c3ccc(C4CCN(CC(=O)N5CC[C@H](N(C)C)C5)CC4)cc3c2CC(F)(F)F)cc1OC [Example 374, (S)-2-(4-(2-(3,4-dimethoxyphenyl)-3-(2,2,2-trifluoroethyl)-1H-indol-5-yl)piperidin-1-yl)-1-(3-(dimethylamino)pyrrolidin-1-yl) ethan-1-one]
17 | 29 | 701 | COc1ccc(-c2[nH]c3ccc(C4CCN(CC(=O)NCCN5CCCC5)CC4)cc3c2CC(F)(F)F)cc1OC [Example 375, 2-(4-(2-(3,4-dimethoxyphenyl)-3-(2,2,2-trifluoroethyl)-1H-indol-5-yl)piperidin-1-yl)-N-(2-(pyrrolidin-1-yl)ethyl)acetamide]
